Data from ChEMBL document CHEMBL4219138, “Discovery of N-aryl-N'-pyrimidin-4-yl ureas as irreversible L858R/T790M mutant selective epidermal growth factor receptor inhibitors” (Bioorg Med Chem Lett, 2018).

What was measured:
NCI-H1975 = assay: Antiproliferative activity against human NCI-H1975 cells harboring EGFR L858R/T790M mutant after 72 hrs by MTT assay; format: functional, cell-based; conditions: NCI-H1975, 72 h
A-431 = assay: Antiproliferative activity against human A431 cells harboring wild-type EGFR after 72 hrs by MTT assay; format: functional, cell-based; conditions: A-431, 72 h
[1] = biological target: T1, Epidermal growth factor receptor (Homo sapiens, UniProt P00533, L858R/T790M); assay: Inhibition of EGFR L858R/T790M mutant phosphorylation in human NCI-H1975 cells after 1 hr by ELISA; format: cell-based
[2] = biological target: T2, Epidermal growth factor receptor (Homo sapiens, UniProt P00533); assay: Inhibition of recombinant human GST-tagged wild-type EGFR cytoplasmic domain (668 to 1210 residues) expressed in baculovirus expression system using tyrosine04 peptide as substrate after 60 mins in presence of ATP by Z-LYTE assay
[3] = biological target: T1, Epidermal growth factor receptor; assay: Inhibition of recombinant human GST-tagged EGFR L858R/T790M mutant cytoplasmic domain (668 to 1210 residues) expressed in baculovirus expression system using tyrosine04 peptide as substrate after 60 mins in presence of ATP by Z-LYTE assay
[4] = biological target: T2, Epidermal growth factor receptor; assay: Inhibition of wild-type EGFR phosphorylation in human A431 cells preincubated for 1 hr followed by EGF stimulation measured after 45 mins by ELISA; format: cell-based
[5] = Selectivity ratio of IC50 for human A431 cells harboring wild-type EGFR to IC50 for human NCI-H1975 cells harboring EGFR L858R/T790M mutant; format: functional

T2 sequence (P00533 whole entry, the tested form may be a part): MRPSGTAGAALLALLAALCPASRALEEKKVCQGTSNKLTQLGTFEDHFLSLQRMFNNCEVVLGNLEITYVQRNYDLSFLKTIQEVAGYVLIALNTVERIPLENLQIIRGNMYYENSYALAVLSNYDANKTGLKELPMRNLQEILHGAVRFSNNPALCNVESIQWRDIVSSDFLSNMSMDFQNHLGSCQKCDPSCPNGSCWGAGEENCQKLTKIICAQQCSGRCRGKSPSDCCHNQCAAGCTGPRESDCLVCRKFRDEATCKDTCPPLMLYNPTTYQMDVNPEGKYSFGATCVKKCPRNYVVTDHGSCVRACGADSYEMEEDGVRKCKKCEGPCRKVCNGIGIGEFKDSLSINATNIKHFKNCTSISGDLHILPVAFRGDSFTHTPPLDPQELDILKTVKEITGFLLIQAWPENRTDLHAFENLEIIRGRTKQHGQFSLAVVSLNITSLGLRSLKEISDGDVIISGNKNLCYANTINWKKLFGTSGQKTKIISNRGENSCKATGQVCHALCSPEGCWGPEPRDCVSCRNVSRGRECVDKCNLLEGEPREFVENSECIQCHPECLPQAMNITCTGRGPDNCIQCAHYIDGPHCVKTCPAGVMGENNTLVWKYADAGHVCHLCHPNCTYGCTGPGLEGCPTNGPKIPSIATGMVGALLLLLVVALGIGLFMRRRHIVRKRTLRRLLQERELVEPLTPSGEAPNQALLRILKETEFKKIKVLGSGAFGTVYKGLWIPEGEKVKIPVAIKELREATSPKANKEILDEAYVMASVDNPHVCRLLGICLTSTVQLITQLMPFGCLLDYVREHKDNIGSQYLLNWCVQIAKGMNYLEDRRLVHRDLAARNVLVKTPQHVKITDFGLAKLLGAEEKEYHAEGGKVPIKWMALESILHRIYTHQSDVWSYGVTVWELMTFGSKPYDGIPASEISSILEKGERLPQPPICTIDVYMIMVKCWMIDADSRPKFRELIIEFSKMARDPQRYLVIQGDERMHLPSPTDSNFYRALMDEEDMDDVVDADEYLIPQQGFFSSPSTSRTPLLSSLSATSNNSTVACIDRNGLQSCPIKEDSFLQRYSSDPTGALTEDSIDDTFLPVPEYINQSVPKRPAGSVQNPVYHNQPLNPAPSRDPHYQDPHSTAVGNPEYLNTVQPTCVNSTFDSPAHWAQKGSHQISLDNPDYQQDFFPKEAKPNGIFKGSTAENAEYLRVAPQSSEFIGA
T1 sequence (P00533 25-1210 T790M/L858R limits assumed): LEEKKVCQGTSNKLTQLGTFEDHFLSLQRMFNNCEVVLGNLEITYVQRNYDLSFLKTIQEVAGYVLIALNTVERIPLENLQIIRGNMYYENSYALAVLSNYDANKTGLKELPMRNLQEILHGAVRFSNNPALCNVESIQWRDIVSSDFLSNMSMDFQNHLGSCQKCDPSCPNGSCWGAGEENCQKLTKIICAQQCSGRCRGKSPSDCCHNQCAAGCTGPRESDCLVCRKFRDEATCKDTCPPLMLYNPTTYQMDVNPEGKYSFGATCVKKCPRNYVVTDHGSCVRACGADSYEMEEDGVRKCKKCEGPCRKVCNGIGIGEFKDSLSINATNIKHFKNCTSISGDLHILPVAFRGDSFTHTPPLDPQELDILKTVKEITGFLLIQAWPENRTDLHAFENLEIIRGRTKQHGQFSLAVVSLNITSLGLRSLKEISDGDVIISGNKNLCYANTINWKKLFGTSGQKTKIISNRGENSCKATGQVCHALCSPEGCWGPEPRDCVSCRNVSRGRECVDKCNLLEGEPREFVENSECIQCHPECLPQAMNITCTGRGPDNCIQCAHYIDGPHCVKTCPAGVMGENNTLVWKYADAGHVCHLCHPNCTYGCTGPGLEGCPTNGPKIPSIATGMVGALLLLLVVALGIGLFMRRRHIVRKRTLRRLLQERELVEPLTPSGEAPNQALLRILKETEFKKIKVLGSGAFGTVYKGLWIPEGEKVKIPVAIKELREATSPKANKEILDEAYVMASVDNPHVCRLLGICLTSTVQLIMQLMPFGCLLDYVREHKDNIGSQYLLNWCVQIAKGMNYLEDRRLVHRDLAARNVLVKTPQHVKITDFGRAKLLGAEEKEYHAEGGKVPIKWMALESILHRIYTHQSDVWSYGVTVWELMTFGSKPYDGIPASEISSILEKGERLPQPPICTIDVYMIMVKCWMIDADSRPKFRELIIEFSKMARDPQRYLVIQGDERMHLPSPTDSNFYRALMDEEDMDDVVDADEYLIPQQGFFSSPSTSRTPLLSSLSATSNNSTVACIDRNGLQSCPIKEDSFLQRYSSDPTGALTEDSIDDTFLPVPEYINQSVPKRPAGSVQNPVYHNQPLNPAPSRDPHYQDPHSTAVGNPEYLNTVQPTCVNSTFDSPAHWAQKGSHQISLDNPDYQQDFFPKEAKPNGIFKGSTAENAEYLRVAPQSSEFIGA

| SMILES | IC50 (NCI-H1975) [nM] | IC50 (A-431) [nM] | IC50 [1] [nM] | IC50 [2] [nM] | IC50 [3] [nM] | IC50 [4] [nM] | Ratio IC50 [5] |
| --- | --- | --- | --- | --- | --- | --- | --- |
| C=CC(=O)Nc1cccc(Oc2nc(Nc3ccc(N4CCN(C)CC4)cc3OC)ncc2Cl)c1 | 27 | 1240 |  |  |  |  |  |
| C=CC(=O)Nc1cccc(Oc2nc(Nc3ccc(N4CCN(C(C)=O)CC4)cc3OC)ncc2C(F)(F)F)c1 | 117 | 2530 | 132 | 67 | 7 | 1030 |  |
| C=CC(=O)Nc1cccc(NC(=O)N(C)c2ccnc(Nc3ccc(N4CCN(C)CC4)cc3OC)n2)c1 |  |  |  | > 1000 | > 1000 |  |  |
| C=CC(=O)Nc1cccc(NC(=O)Nc2ccnc(Nc3ccc(N4CCC(N5CCN(C)CC5)CC4)cc3OC)n2)c1 | 106 |  | 105 | 80 | 5 | 2340 |  |
| C=CC(=O)Nc1cccc(NC(=O)Nc2ccnc(Nc3ccc(N4CCC(N(C)C)CC4)cc3OC)n2)c1 | 107 | 3380 | 82 | 45 | 2 | 1540 |  |
| C=CC(=O)Nc1cccc(NC(=O)Nc2ccnc(Nc3ccc(N(C)CCN(C)C)cc3OC)n2)c1 | 502 | 3400 | 430 | 49 | 19 | 1700 |  |
| C=CC(=O)Nc1cccc(NC(=O)Nc2ccnc(Nc3ccc(N(C)C)cc3)n2)c1 |  |  |  | 462 | 170 |  |  |
| C=CC(=O)Nc1cccc(NC(=O)Nc2ccnc(Nc3ccc(C4CCN(C)CC4)cc3)n2)c1 |  |  |  | > 1000 | 510 |  |  |
| C=CC(=O)Nc1cccc(NC(=O)Nc2ccnc(Nc3ccc(N4CCC(N5CCOCC5)CC4)cc3OC)n2)c1 | 37 | > 10000 | 41 | 86 | 4 | 6460 | >270 |
| C=CC(=O)Nc1cccc(NC(=O)Nc2ccnc(Nc3ccc(C(=O)N4CCN(C)CC4)cc3OC)n2)c1 |  |  |  | 972 | 215 |  |  |
| C=CC(=O)Nc1cccc(NC(=O)Nc2nc(Nc3ccc(N4CCC(N5CCOCC5)CC4)cc3OC)ncc2C(F)(F)F)c1 |  |  |  | > 1000 | 270 |  |  |
| C=CC(=O)Nc1cccc(NC(=O)Nc2ccnc(Nc3ccc(C4CCN(C)CC4)cc3OC)n2)c1 | 75 | > 10000 | 130 | 273 | 28 | 5000 |  |
| C=CC(=O)Nc1cccc(NC(=O)Nc2nc(Nc3ccc(N4CCC(N5CCOCC5)CC4)cc3OC)ncc2Cl)c1 | 199 | 2590 | 131 | 641 | 37 | 2210 |  |
| C=CC(=O)Nc1cccc(NC(=O)C(C)(C)c2ccnc(Nc3ccc(N4CCN(C)CC4)cc3OC)n2)c1 |  |  |  | > 1000 | > 1000 |  |  |
| C=CC(=O)Nc1cccc(NC(=O)Nc2ccnc(Nc3ccc(N4CCOCC4)cc3OC)n2)c1 | 173 |  | 218 | 225 | 15 | > 10000 |  |
| C=CC(=O)Nc1cccc(NC(=O)Nc2ccnc(Nc3ccc(N4CCN(C)CC4)cc3)n2)c1 | 1930 |  | 3150 | 143 | 48 |  |  |
| C=CC(=O)Nc1cccc(NC(=O)Nc2ccnc(Nc3ccc(N4CCOCC4)cc3)n2)c1 | 7520 | > 10000 | > 10000 | 644 | 87 | > 10000 |  |
| C=CC(=O)Nc1cccc(NC(=O)Nc2ccnc(Nc3ccccc3OC)n2)c1 |  |  |  | > 1000 | 192 |  |  |
| C=CC(=O)Nc1cccc(NC(=O)Nc2ccnc(Nc3ccc(N4CCN(CCF)CC4)cc3OC)n2)c1 | 519 |  | 511 | 158 | 22 | > 10000 |  |
| C=CC(=O)Nc1cccc(NC(=O)Nc2ccnc(Nc3ccc(OC)cc3OC)n2)c1 | 467 |  | 391 | 348 | 58 |  |  |
| C=CC(=O)Nc1cccc(NC(=O)Nc2ccnc(Nc3ccc(OCCOC)cc3)n2)c1 |  |  |  | > 1000 | 266 |  |  |
| C=CC(=O)Nc1cccc(NC(=O)Nc2ccnc(Nc3ccc(N4CCC(N(CC)CC)CC4)cc3OC)n2)c1 | 31 | 2010 |  |  |  |  |  |
| C=CC(=O)NC1CCCN(C(=O)Nc2ccnc(Nc3ccc(N4CCN(C)CC4)cc3OC)n2)C1 (centres undefined) |  |  |  | > 1000 | > 1000 |  |  |
| C=CC(=O)Nc1cccc(NC(=O)Nc2ccnc(Nc3ccc(N4CCN(C)CC4)cc3OC)n2)c1 | 525 |  | 906 | 17 | 17 |  |  |
| C=CC(=O)Nc1cccc(NC(=O)Nc2ccnc(Nc3ccc(C(=O)N4CCOCC4)cc3OC)n2)c1 |  |  |  | > 1000 | 128 |  |  |
| C=CC(=O)Nc1cccc(NC(=O)Nc2ccnc(Nc3ccc(N(CC)CC)cc3OC)n2)c1 | 86 | > 10000 | 112 | 183 | 12 | > 10000 |  |
| C=CC(=O)Nc1cccc(NC(=O)C2(C(=O)Nc3ccnc(Nc4ccc(N5CCN(C)CC5)cc4OC)n3)CC2)c1 |  |  |  | > 1000 | > 1000 |  |  |
